The values below come from patent US11034671B2, “Apoptosis signal-regulating kinase inhibitors and uses thereof” (SICHUAN HAISCO PHARMACEUTICAL CO., LTD., priority 2017, dated 2021).

pIC50, pKd: −log10 of the molar value.

The subject of experiment [1] is phospho-p38 (downstream target of ASK1 activation) in HK-2 cells. Briefly: HK-2 phospho-p38 HTRF assay (cellular IC50). The format is cell-based. Conditions: Homo sapiens, compound 2 h then 1 mM H2O2 30 min, phospho-T180/Y182 p38 HTRF, read-out: p38 MAPK IC50. The protocol:
Monolayers of HK-2 cells were grown on 384-well plates at 8000 cells/well and incubated at 37° C. with 5% CO2/95% air in keratinocyte serum-free medium (Thermofisher, Carlsbad, Calif.) supplemented with recombinant human EGF (5 ng/mL) and bovine pituitary extract (50 μg/mL). 24 hours after seeding, cells were treated with test compounds for various concentrations for 2 hours and followed by 30 min treatment of H2O2 with final concentration of 1 mM. At the end of cell treatment, the cell medium was removed, and the cells were washed once with ice-cold PBS and subjected to measure the level of phosphor-p38 (downstream target of ASK1 activation) using Cisbio's P38 phospho-T180/Y182 HTRF kit from Cisbio (Cat. 64P38PEG). […] The compounds were then diluted directly into the assays such that the final concentration of DMSO was 0.4%. […] IC50 were calculated with a log (dose)-response curve using four parameter variable nonlinear fitting, with log(dose) in X-axis and (Em665/Em620×10000) ratio as Y-axis.

The next experiment deals with ASK1 (Homo sapiens (Human), UniProt Q99683). Kind of experiment: ASK1 KINOMEscan assay (biochemical Kd), competition binding. Conditions: DNA-tagged ASK1 kinase, 11-point 3-fold dilution. The protocol: The binding of compounds to ASK1 were determined using DiscoverX's proprietary technology. […] The assay is performed by combining three components: DNA-tagged ASK1 kinase; immobilized ligand; and a test compound. The ability of the test compound to compete with the immobilized ligand is measured via quantitative PCR of the DNA tag. […] The liganded beads were blocked with excess biotin and washed with blocking buffer (SeaBlock (Pierce), 1% BSA, 0.05% Tween 20, 1 mM DTT) to remove unbound ligand and to reduce nonspecific binding. […] Kds were determined using an 11-point 3-fold compound dilution series with three DMSO control points. […] The compounds were then diluted directly into the assays such that the final concentration of DMSO was 0.9%. All reactions were performed in polypropylene 384-well plate. […] The kinase concentration in the eluates was measured by qPCR. Most Kds were determined using a compound top concentration=30,000 nM. […] Binding constants (Kds) were calculated with a standard dose-response curve using the Hill equation: Response=Background+{(Signal−Background)/[1+(Kd^Hill Slope/Dose^Hill Slope)]}, the Hill Slope was set to −1, and curves were fitted using a non-linear least square fit with the Levenberg-Marquardt algorithm.
Chain of ASK1 (Q99683 whole entry): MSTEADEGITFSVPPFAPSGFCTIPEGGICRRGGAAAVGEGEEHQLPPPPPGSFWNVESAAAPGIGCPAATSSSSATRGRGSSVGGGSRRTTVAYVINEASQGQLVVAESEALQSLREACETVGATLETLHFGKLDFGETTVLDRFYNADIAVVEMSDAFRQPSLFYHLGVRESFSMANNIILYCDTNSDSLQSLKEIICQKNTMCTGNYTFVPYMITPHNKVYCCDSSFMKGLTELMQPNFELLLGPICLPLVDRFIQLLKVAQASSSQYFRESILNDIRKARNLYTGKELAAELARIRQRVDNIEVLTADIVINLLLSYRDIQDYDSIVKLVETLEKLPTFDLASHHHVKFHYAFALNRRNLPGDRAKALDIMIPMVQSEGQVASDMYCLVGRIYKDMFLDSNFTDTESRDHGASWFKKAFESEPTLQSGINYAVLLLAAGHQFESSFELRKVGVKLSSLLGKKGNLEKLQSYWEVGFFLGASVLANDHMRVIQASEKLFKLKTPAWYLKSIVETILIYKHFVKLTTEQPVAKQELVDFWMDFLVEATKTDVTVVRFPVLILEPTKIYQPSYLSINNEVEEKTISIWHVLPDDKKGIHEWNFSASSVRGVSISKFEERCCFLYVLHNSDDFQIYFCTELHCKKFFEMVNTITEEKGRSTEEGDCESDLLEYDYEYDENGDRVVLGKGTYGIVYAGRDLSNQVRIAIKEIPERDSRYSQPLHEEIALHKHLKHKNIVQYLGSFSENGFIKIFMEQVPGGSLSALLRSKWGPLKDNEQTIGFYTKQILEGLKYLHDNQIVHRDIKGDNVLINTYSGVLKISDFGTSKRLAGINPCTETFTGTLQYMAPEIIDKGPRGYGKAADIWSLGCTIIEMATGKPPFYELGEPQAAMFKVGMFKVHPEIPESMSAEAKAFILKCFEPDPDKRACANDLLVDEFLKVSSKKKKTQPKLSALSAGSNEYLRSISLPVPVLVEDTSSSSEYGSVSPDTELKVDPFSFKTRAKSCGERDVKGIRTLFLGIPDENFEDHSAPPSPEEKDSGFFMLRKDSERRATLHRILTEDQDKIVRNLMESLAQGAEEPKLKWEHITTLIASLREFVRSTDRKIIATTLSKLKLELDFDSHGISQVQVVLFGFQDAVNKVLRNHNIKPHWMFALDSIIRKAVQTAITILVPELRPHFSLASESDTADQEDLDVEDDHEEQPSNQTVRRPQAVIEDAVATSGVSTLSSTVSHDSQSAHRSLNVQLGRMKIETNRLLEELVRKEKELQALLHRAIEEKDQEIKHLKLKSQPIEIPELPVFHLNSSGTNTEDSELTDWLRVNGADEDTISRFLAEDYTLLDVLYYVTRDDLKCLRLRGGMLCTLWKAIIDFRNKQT

In the case of `O=C1Nc2cccc(n2)-c2nncn2CCCCOc2ccc(C3CC3)cc21` [Example 46], in experiment [1], the pIC50 – broadly, −log10 of the IC50, conventionally taken in molar units – is 6.00 to 7.00. Besides, the pKd – broadly, −log10 of the Kd, conventionally taken in molar units – at ASK1 was greater than 8.00.

As to `Cc1ccc(-c2ccc3c(c2)C(=O)Nc2cccc(n2)-c2nncn2C(C)CCCO3)cn1` (centres unmarked) [Example 56], in experiment [1], the pIC50 was greater than 7.00. On ASK1, this compound showed a pKd greater than 8.00.

Consider `O=C1Nc2cccc(n2)-c2nncn2CCCCOc2ccc(-c3ccsc3)cc21` [Example 42], for which the pIC50 in experiment [1] was 6.00 to 7.00. The pKd on ASK1 was greater than 8.00.

As to `CC1CCCOc2ccc(-c3ccc(C4CC4)nc3)cc2C(=O)Nc2cccc(n2)-c2nncn21` (centres unmarked) [Example 50], in experiment [1], the pIC50 is greater than 7.00. The compound further showed a pKd at ASK1 greater than 8.00.

On to `Cc1ccc(-c2ccc3c(c2)C(=O)Nc2cccc(n2)-c2nncn2C2CC(CO3)C2)cn1` [Example 69], for which the pIC50 in experiment [1] is greater than 7.00.

On to `O=C1Nc2cccc(n2)-c2nncn2CCCCOc2ccc(-c3ccc(Cl)nc3)cc21` [Example 54], for which the pIC50 in experiment [1] is greater than 7.00. Besides, on ASK1, the negative-log Kd (pKd) was greater than 8.00.

On to `O=C1Nc2cccc(n2)-c2nncn2CCCCOc2ccc(-n3cnc(C4CC4)c3)cc21` [Example 22], for which the pIC50 in experiment [1] is greater than 7.00. Also, the pKd at ASK1 was greater than 8.00.

`O=C1Nc2cccc(n2)-c2nncn2CCCCOc2ccc(-c3ccc(C4CC4)nc3)cc21` [Example 23]: in experiment [1], the pIC50 is 6.00 to 7.00. Moreover, the pKd on ASK1 is greater than 8.00.

On to `Cc1ccc(-c2ccc3c(c2)C(=O)Nc2cccc(n2)-c2nncn2CCCCO3)cn1` [Example 24], for which the pIC50 in experiment [1] was greater than 7.00. At ASK1, the pKd is greater than 8.00.

With `O=C1Nc2cccc(n2)-c2nncn2CCCCOc2ccc(-c3ccc(C(F)F)nc3)cc21` [Example 52], the negative logarithm of the IC50 (pIC50) in experiment [1] was greater than 7.00. At ASK1, this compound showed a pKd greater than 8.00.

`Cn1cc(-c2ccc3c(c2)C(=O)Nc2cccc(n2)-c2nncn2CCCCO3)cn1` [Example 48]: the pIC50 in experiment [1] is greater than 7.00.

In the case of `Cc1ccc(-c2ccc3c(c2)C(=O)Nc2cccc(n2)-c2nncn2CCCOC3)cn1` [Example 70], the pIC50 in experiment [1] is greater than 7.00. Also, at ASK1, the pKd was greater than 8.00.

`Cc1ccc(-c2ccc3c(c2)C(=O)Nc2cccc(n2)-c2nncn2C2CCC(CC2)O3)cn1` [Example 71]: the pIC50 in experiment [1] is greater than 7.00.

As to `Cc1ccc(-c2ccc3c(c2)C(=O)Nc2cccc(n2)-c2nncn2C(C)CCO3)cn1` (centres unmarked) [Example 67], in experiment [1], the pIC50 was greater than 7.00. Moreover, the pKd on ASK1 was greater than 8.00.

As for `O=C1Nc2cccc(n2)-c2nncn2CCCCOc2ccc(-c3ccccc3)cc21` [Example 38], the pIC50 in experiment [1] was greater than 7.00. The same compound showed a negative logarithm of the Kd (pKd) on ASK1 greater than 8.00.

As to `O=C1Nc2cccc(n2)-c2nncn2CCCCOc2ccc(-c3ccc(F)nc3)cc21` [Example 39], in experiment [1], the pIC50 is greater than 7.00. The compound also gave a pKd at ASK1 greater than 8.00.

With `CC1(C)Cc2cc3c(cc2O1)C(=O)Nc1cccc(n1)-c1nncn1CCCCO3` [Example 30], the pIC50 in experiment [1] was greater than 7.00. The compound also had a pKd at ASK1 greater than 8.00.

For `O=C1Nc2cccc(n2)-c2nncn2CCCOc2ccc(-c3ccc(C4CC4)nc3)cc21` [Example 37], in experiment [1], the pIC50 was greater than 7.00. Moreover, the pKd at ASK1 is greater than 8.00.

As for `O=C1Nc2cccc(n2)-c2nncn2CCCCCOc2ccc(-c3ccc(C4CC4)nc3)cc21` [Example 19], in experiment [1], the pIC50 was 6.00 to 7.00. Further, on ASK1, the pKd was 7.00 to 8.00.

With `N#Cc1ccc(-c2ccc3c(c2)C(=O)Nc2cccc(n2)-c2nncn2CCCCO3)cn1` [Example 63], the pIC50 in experiment [1] was 6.00 to 7.00. Moreover, at ASK1, the pKd is greater than 8.00.

Regarding `COc1ccc2c(c1)C(=O)Nc1cccc(n1)-c1nncn1CC=CC2` [Example 94], on ASK1, the pKd is less than 6.00.

As for `O=C1Nc2cccc(n2)-c2nncn2CCCCOc2ccc(N3CCOCC3)cc21` [Example 43], in experiment [1], the pIC50 was greater than 7.00.

`O=C1Nc2cccc(n2)-c2nncn2CC=CCCCOc2ccc(-c3ccc(C4CC4)nc3)cc21` [Example 13] showed a pKd on ASK1 of less than 6.00.

As to `O=C1Nc2cccc(n2)-c2nncn2CCCCOc2ccc(-c3ccc(C(F)(F)F)nc3)cc21` [Example 40], the pIC50 in experiment [1] is greater than 7.00. This compound also gave a pKd at ASK1 greater than 8.00.

For `Cc1ccc(-c2ccc3c(c2)C(=O)Nc2cccc(n2)-c2nncn2CCCS3)cn1` [Example 91], the pKd at ASK1 was less than 6.00.

In turn, `O=C1Nc2cccc(c2)-c2nncn2CCCOc2ccc(-c3ccc(C4CC4)nc3)cc21` [Example 21] showed a pKd at ASK1 of less than 6.00.

Turning to `COc1ccc2c(c1)C(=O)Nc1cccc(n1)-c1nncn1CC/C=C/C2` [Example 4], the pKd on ASK1 is less than 6.00.

`O=C1Nc2cccc(n2)-c2nncn2C/C=C/CCOc2ccc(OCc3ccccc3)cc21` [Example 17] gave a pKd on ASK1 of 7.00 to 8.00.

The compound `O=C1Nc2cccc(n2)-c2nncn2CCCOCc2ccc(-c3ccc(C4CC4)nc3)cc21` [Example 95] had a pKd on ASK1 greater than 8.00.

Take `Cc1cc2c(cc1-n1cnc(C3CC3)c1)C(=O)Nc1cccc(n1)-c1nncn1CCCCO2` [Example 61]: the negative logarithm of the IC50 (pIC50) in experiment [1] is greater than 7.00. Also, the pKd at ASK1 is greater than 8.00.

As to `O=C1Nc2cccc(n2)-c2nncn2CCCCOc2ccc(-c3cnc(F)c(F)c3)cc21` [Example 98], at ASK1, the pKd was greater than 8.00.

As to `O=C1Nc2cccc(n2)-c2nncn2CCCOc2ccc(-n3cnc(C4CC4)c3)cc21` [Example 66], the pIC50 in experiment [1] is 6.00 to 7.00. In addition, the pKd at ASK1 was greater than 8.00.

On ASK1, `Cc1ccc(-c2ccc3c(c2)C(=O)Nc2cccc(n2)-c2nncn2CC(C)CCO3)cn1` (centres unmarked) [Example 80] gave a pKd greater than 8.00.

As for `CCc1ccc(-c2ccc3c(c2)C(=O)Nc2cccc(n2)-c2nncn2CCCCO3)cn1` [Example 47], in experiment [1], the pIC50 is greater than 7.00. The pKd on ASK1 is greater than 8.00.

In the case of `O=C1Nc2cccc(n2)-c2nncn2C2CC(C2)Oc2ccc(-c3ccc(C(F)F)nc3)cc21` [Example 93], on ASK1, the pKd was 6.00 to 7.00.

At ASK1, `COc1cc2c(cc1OC)C(=O)Nc1cccc(n1)-c1nncn1CCCCO2` [Example 29] showed a pKd of 6.00 to 7.00.

For the compound `O=C1Nc2cccc(n2)-c2nncn2C/C=C/COc2ccc(OCc3ccccc3)cc21` [Example 18], at ASK1, the pKd is greater than 8.00.

At ASK1, `O=C1Nc2cccc(n2)-c2nncn2CCCOc2ccc(-c3ccccc3)cc21` [Example 57] showed a pKd of 7.00 to 8.00.

On ASK1, `O=C1Nc2cccc(n2)-c2nncn2CCCCOc2cc(F)c(-c3ccc(C4CC4)nc3)cc21` [Example 68] gave a pKd greater than 8.00.

`Cc1cc2c(cc1-c1ccc(C3CC3)nc1)C(=O)Nc1cccc(n1)-c1nncn1CCCCO2` [Example 65]: the pKd at ASK1 is greater than 8.00.

Take `O=C1Nc2cccc(n2)-c2nncn2CCCCOc2ccc(-c3ccc4nccn4c3)cc21` [Example 58]: on ASK1, the pKd is greater than 8.00.

The compound `Cc1ccc(-c2ccc3c(c2)C(=O)Nc2cccc(n2)-c2nncn2CCO3)cn1` [Example 72] gave a pKd on ASK1 of less than 6.00.

The compound `COc1ccc2c(c1)C(=O)Nc1cccc(n1)-c1nncn1CC/C=C/CO2` [Example 1] gave a pKd at ASK1 greater than 8.00.

In turn, `O=C1Nc2cccc(n2)-c2nncn2CCCCCCOc2ccc(-c3ccc(C4CC4)nc3)cc21` [Example 9] had a pKd on ASK1 of 6.00 to 7.00.
